Patent US20070010671A1, “Novel quinazoline derivatives and methods of treatment related to the use thereof” (priority 2003, published 2007)

biological target: MCH receptor (Homo sapiens, UniProt Q99705); experiment: High throughput functional screening FLIPR/FDSS6000: inhibition of MCH-evoked intracellular Ca2+ changes; format: cell-based; settings: class by percent of control at 10^-7 M or IC50
How it was run: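 Constitutively active non-endogenous MCH-R cells; Fluo4-AM 4 μM, 2.5 mM probenecid, 1 hr, 37° C; cpd 3 min, 37° C; MCH 50 nM (antagonist mode); kinetic Ca2+ read Ex488/Em530, 290 s.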

**Q.** How did the class turn out when `CC(C)c1cc(Br)c(NC(=O)NC[C@H]2CC[C@@H](Nc3nc(N(C)C)c4ccccc4n3)CC2)c(Br)c1` [compound 759, N-(2,6-dibromo-4-isopropylphenyl)-N′-[(cis-4-{[4-(dimethylamino)quinazolin-2-yl]amino}cyclohexyl)methyl]urea] was run?
**A.** 2 (Class 2: The value of percent of control at 10^−7 M was from 40% to 60% or the value of IC50 was from 50 nM to 200 nM.)

**Q.** With `CN(C)c1nc(N[C@H]2CC[C@@H](CNC(=O)Nc3ccccc3C#N)CC2)nc2ccccc12` [compound 760] as the molecule, how does the class read?
**A.** 3 (Class 3: The value of percent of control at 10^−7 M was more than 60% or the value of IC50 was more than 200 nM.)

**Q.** How did the class turn out when `CN(C)c1nc(N[C@H]2CC[C@@H](CNC(=O)Nc3cccs3)CC2)nc2ccccc12` [compound 761] was run?
**A.** 3 (Class 3: The value of percent of control at 10^−7 M was more than 60% or the value of IC50 was more than 200 nM.)

**Q.** Which class does the source give for `COc1ccc(NC(=O)NC[C@H]2CC[C@@H](Nc3nc(N(C)C)c4ccccc4n3)CC2)cc1OC1CCCC1` [compound 762] here?
**A.** 3 (Class 3: The value of percent of control at 10^−7 M was more than 60% or the value of IC50 was more than 200 nM.)

**Q.** How did the class turn out when `CN(C)c1nc(N[C@H]2CC[C@@H](CNC(=O)Nc3ccc4c(c3)OCCCO4)CC2)nc2ccccc12` [compound 763] was run?
**A.** 3 (Class 3: The value of percent of control at 10^−7 M was more than 60% or the value of IC50 was more than 200 nM.)

**Q.** How did the class turn out when `CN(C)c1nc(N[C@H]2CC[C@@H](CNC(=O)Nc3ccsc3)CC2)nc2ccccc12` [compound 764, N-[(cis-4-{[4-(dimethylamino)quinazolin-2-yl]amino}cyclohexyl)methyl]-N′-3-thienylurea] was run?
**A.** 2 (Class 2: The value of percent of control at 10^−7 M was from 40% to 60% or the value of IC50 was from 50 nM to 200 nM.)

**Q.** How did the class turn out when `CN(C)c1nc(N[C@H]2CC[C@@H](CNC(=O)Nc3ccc(C(C)(C)C)cc3)CC2)nc2ccccc12` [compound 765] was run?
**A.** 3 (Class 3: The value of percent of control at 10^−7 M was more than 60% or the value of IC50 was more than 200 nM.)

**Q.** For `CCCCc1ccc(NC(=O)NC[C@H]2CC[C@@H](Nc3nc(N(C)C)c4ccccc4n3)CC2)c(C)c1` [compound 766], which class is on record?
**A.** 3 (Class 3: The value of percent of control at 10^−7 M was more than 60% or the value of IC50 was more than 200 nM.)

**Q.** How did the class turn out when `Cc1cc(NC(=O)NC[C@H]2CC[C@@H](Nc3nc(N(C)C)c4ccccc4n3)CC2)c(C(F)(F)F)o1` [compound 767, N-[(cis-4-{[4-(dimethylamino)quinazolin-2-yl]amino}cyclohexyl)methyl]-N′-[5-methyl-2-(trifluoromethyl)-3-furyl]urea] was run?
**A.** 1 (Class 1: The value of percent of control at 10^−7 M was less than 40% or the value of IC50 was less than 50 nM.)

**Q.** Which class does the source give for `CN(C)c1nc(N[C@H]2CC[C@@H](CNC(=O)Nc3ccc(-c4ccccc4)s3)CC2)nc2ccccc12` [compound 768] here?
**A.** 3 (Class 3: The value of percent of control at 10^−7 M was more than 60% or the value of IC50 was more than 200 nM.)

**Q.** How did the class turn out when `CN(C)c1nc(N[C@H]2CC[C@@H](CNC(=O)Nc3cc(F)cc4c3OCOC4)CC2)nc2ccccc12` [compound 769, N-[(cis-4-{[4-(dimethylamino)quinazolin-2-yl]amino}cyclohexyl)methyl]-N′-(6-fluoro-4H-1,3-benzodioxin-8-yl)urea] was run?
**A.** 2 (Class 2: The value of percent of control at 10^−7 M was from 40% to 60% or the value of IC50 was from 50 nM to 200 nM.)

**Q.** `CN(C)c1nc(N[C@H]2CC[C@@H](CNC(=O)NC3CCN(C(=O)OCc4ccccc4)CC3)CC2)nc2ccccc12` [compound 770] was tested. Which class did it give?
**A.** 3 (Class 3: The value of percent of control at 10^−7 M was more than 60% or the value of IC50 was more than 200 nM.)

**Q.** Which class does the source give for `Cc1ccc2nc(-c3ccc(NC(=O)NC[C@H]4CC[C@@H](Nc5nc(N(C)C)c6ccccc6n5)CC4)cc3)sc2c1` [compound 771] here?
**A.** 3 (Class 3: The value of percent of control at 10^−7 M was more than 60% or the value of IC50 was more than 200 nM.)

**Q.** With `CN(C)c1ccc(NC(=O)NC[C@H]2CC[C@@H](Nc3nc(N(C)C)c4ccccc4n3)CC2)cc1` [compound 772] as the molecule, how does the class read?
**A.** 3 (Class 3: The value of percent of control at 10^−7 M was more than 60% or the value of IC50 was more than 200 nM.)

**Q.** `CN(C)c1nc(N[C@H]2CC[C@@H](CNC(=O)Nc3cc(Cl)nc(Cl)c3)CC2)nc2ccccc12` [compound 773] was tested. Which class did it give?
**A.** 3 (Class 3: The value of percent of control at 10^−7 M was more than 60% or the value of IC50 was more than 200 nM.)

**Q.** How did the class turn out when `Cc1noc(C)c1NC(=O)NC[C@H]1CC[C@@H](Nc2nc(N(C)C)c3ccccc3n2)CC1` [compound 774, N-[(cis-4-{[4-(dimethylamino)quinazolin-2-yl]amino}cyclohexyl)methyl]-N′-(3,5-dimethylisoxazol-4-yl)urea] was run?
**A.** 2 (Class 2: The value of percent of control at 10^−7 M was from 40% to 60% or the value of IC50 was from 50 nM to 200 nM.)

**Q.** How did the class turn out when `Cc1noc(-c2ccccc2)c1NC(=O)NC[C@H]1CC[C@@H](Nc2nc(N(C)C)c3ccccc3n2)CC1` [compound 775] was run?
**A.** 1 (Class 1: The value of percent of control at 10^−7 M was less than 40% or the value of IC50 was less than 50 nM.)

**Q.** With `Cc1onc(-c2ccccc2)c1NC(=O)NC[C@H]1CC[C@@H](Nc2nc(N(C)C)c3ccccc3n2)CC1` [compound 776] as the molecule, how does the class read?
**A.** 2 (Class 2: The value of percent of control at 10^−7 M was from 40% to 60% or the value of IC50 was from 50 nM to 200 nM.)

**Q.** How did the class turn out when `C#CCNC(=S)NC[C@H]1CC[C@@H](Nc2nc(N(C)C)c3ccccc3n2)CC1` [compound 777] was run?
**A.** 3 (Class 3: The value of percent of control at 10^−7 M was more than 60% or the value of IC50 was more than 200 nM.)

**Q.** How did the class turn out when `CN(C)c1nc(N[C@H]2CC[C@@H](CNC(=S)Nc3ccc(S(=O)(=O)N4CCCCC4)cc3)CC2)nc2ccccc12` [compound 778] was run?
**A.** 3 (Class 3: The value of percent of control at 10^−7 M was more than 60% or the value of IC50 was more than 200 nM.)

**Q.** For `CN(C)c1nc(N[C@H]2CC[C@@H](CNC(=S)NCCC3=CCCCC3)CC2)nc2ccccc12` [compound 779], which class is on record?
**A.** 3 (Class 3: The value of percent of control at 10^−7 M was more than 60% or the value of IC50 was more than 200 nM.)

**Q.** With `Cc1cccc(NC(=S)NC[C@H]2CC[C@@H](Nc3nc(N(C)C)c4ccccc4n3)CC2)c1C` [compound 780] as the molecule, how does the class read?
**A.** 3 (Class 3: The value of percent of control at 10^−7 M was more than 60% or the value of IC50 was more than 200 nM.)

**Q.** How did the class turn out when `CN(C)c1nc(N[C@H]2CC[C@@H](CNC(=S)Nc3c(F)cc(Br)cc3Br)CC2)nc2ccccc12` [compound 781, N-(2,4-dibromo-6-fluorophenyl)-N′-[(cis-4-{[4-(dimethylamino)quinazolin-2-yl]amino}cyclohexyl)methyl]thiourea] was run?
**A.** 2 (Class 2: The value of percent of control at 10^−7 M was from 40% to 60% or the value of IC50 was from 50 nM to 200 nM.)

**Q.** Which class does the source give for `Cc1cc(Cl)cc(Cl)c1NC(=S)NC[C@H]1CC[C@@H](Nc2nc(N(C)C)c3ccccc3n2)CC1` [compound 782, N-(2,4-dichloro-6-methylphenyl)-N′-[(cis-4-{[4-(dimethylamino)quinazolin-2-yl]amino}cyclohexyl)methyl]thiourea] here?
**A.** 2 (Class 2: The value of percent of control at 10^−7 M was from 40% to 60% or the value of IC50 was from 50 nM to 200 nM.)

**Q.** With `Cc1ccc(C)c(NC(=S)NC[C@H]2CC[C@@H](Nc3nc(N(C)C)c4ccccc4n3)CC2)c1` [compound 783, N-[(cis-4-{[4-(dimethylamino)quinazolin-2-yl]amino}cyclohexyl)methyl]-N′-(2,5-dimethylphenyl)thiourea] as the molecule, how does the class read?
**A.** 2 (Class 2: The value of percent of control at 10^−7 M was from 40% to 60% or the value of IC50 was from 50 nM to 200 nM.)

**Q.** For `CC(C)c1ccc(NC(=S)NC[C@H]2CC[C@@H](Nc3nc(N(C)C)c4ccccc4n3)CC2)c(Br)c1` [compound 784], which class is on record?
**A.** 3 (Class 3: The value of percent of control at 10^−7 M was more than 60% or the value of IC50 was more than 200 nM.)

**Q.** `CN(C)c1nc(N[C@H]2CC[C@@H](CNC(=S)Nc3cc(F)ccc3Br)CC2)nc2ccccc12` [compound 785] was tested. Which class did it give?
**A.** 3 (Class 3: The value of percent of control at 10^−7 M was more than 60% or the value of IC50 was more than 200 nM.)

**Q.** For `CCOc1ccccc1NC(=S)NC[C@H]1CC[C@@H](Nc2nc(N(C)C)c3ccccc3n2)CC1` [compound 786, N-[(cis-4-{[4-(dimethylamino)quinazolin-2-yl]amino}cyclohexyl)methyl]-N′-(2-ethoxyphenyl)thiourea], which class is on record?
**A.** 2 (Class 2: The value of percent of control at 10^−7 M was from 40% to 60% or the value of IC50 was from 50 nM to 200 nM.)

**Q.** How did the class turn out when `Cc1cccc(C(C)C)c1NC(=S)NC[C@H]1CC[C@@H](Nc2nc(N(C)C)c3ccccc3n2)CC1` [compound 787] was run?
**A.** 1 (Class 1: The value of percent of control at 10^−7 M was less than 40% or the value of IC50 was less than 50 nM.)

**Q.** `COc1ccccc1CNC(=S)NC[C@H]1CC[C@@H](Nc2nc(N(C)C)c3ccccc3n2)CC1` [compound 788] was tested. Which class did it give?
**A.** 3 (Class 3: The value of percent of control at 10^−7 M was more than 60% or the value of IC50 was more than 200 nM.)

**Q.** `CN(C)c1nc(N[C@H]2CC[C@@H](CNC(=S)Nc3ccc4c(c3)OCCO4)CC2)nc2ccccc12` [compound 789] was tested. Which class did it give?
**A.** 3 (Class 3: The value of percent of control at 10^−7 M was more than 60% or the value of IC50 was more than 200 nM.)

**Q.** How did the class turn out when `Cc1ccc(NC(=S)NC[C@H]2CC[C@@H](Nc3nc(N(C)C)c4ccccc4n3)CC2)cc1C` [compound 790] was run?
**A.** 3 (Class 3: The value of percent of control at 10^−7 M was more than 60% or the value of IC50 was more than 200 nM.)

**Q.** How did the class turn out when `CN(C)c1nc(N[C@H]2CC[C@@H](CNC(=S)Nc3ccc4c(c3)OCO4)CC2)nc2ccccc12` [compound 791] was run?
**A.** 3 (Class 3: The value of percent of control at 10^−7 M was more than 60% or the value of IC50 was more than 200 nM.)

**Q.** How did the class turn out when `Cc1c(Cl)cccc1NC(=S)NC[C@H]1CC[C@@H](Nc2nc(N(C)C)c3ccccc3n2)CC1` [compound 792] was run?
**A.** 3 (Class 3: The value of percent of control at 10^−7 M was more than 60% or the value of IC50 was more than 200 nM.)

**Q.** How did the class turn out when `CN(C)c1nc(N[C@H]2CC[C@@H](CNC(=S)Nc3ccc(Br)cc3OC(F)(F)F)CC2)nc2ccccc12` [compound 793] was run?
**A.** 2 (Class 2: The value of percent of control at 10^−7 M was from 40% to 60% or the value of IC50 was from 50 nM to 200 nM.)
